Results published in ChEMBL document CHEMBL1275437, “Prevalence of serotype 19A Streptococcus pneumoniae among isolates from U.S. children in 2005-2006 and activity of faropenem” (2008).
≈ marks a conversion by molar mass, not a printed value.

Key:
Streptococcus pneumoniae [1] = experiment: Antibacterial activity against Streptococcus pneumoniae serotype 15A by broth microdilution method in presence of clavulanate; type: functional
Streptococcus pneumoniae [2] = experiment: Antibacterial activity against Streptococcus pneumoniae serotype 33 by broth microdilution method in presence of clavulanate; type: functional
Streptococcus pneumoniae [3] = experiment: Antibacterial activity against Streptococcus pneumoniae serotype 22 by broth microdilution method in presence of clavulanate; type: functional
Streptococcus pneumoniae [4] = experiment: Antibacterial activity against Streptococcus pneumoniae serotype 19A assessed as percent susceptible isolates by broth microdilution method in presence of clavulanate; type: functional
Streptococcus pneumoniae [5] = experiment: Antibacterial activity against Streptococcus pneumoniae serotype 6A/C assessed as percent susceptible isolates by broth microdilution method in presence of clavulanate; type: functional
Streptococcus pneumoniae [6] = experiment: Antibacterial activity against Streptococcus pneumoniae serotype 3 assessed as percent susceptible isolates by broth microdilution method in presence of clavulanate; type: functional
Streptococcus pneumoniae [7] = experiment: Antibacterial activity against Streptococcus pneumoniae serotype 19F assessed as percent susceptible isolates by broth microdilution method in presence of clavulanate; type: functional
Streptococcus pneumoniae [8] = experiment: Antibacterial activity against Streptococcus pneumoniae serotype 35B assessed as percent susceptible isolates by broth microdilution method in presence of clavulanate; type: functional
Streptococcus pneumoniae [9] = experiment: Antibacterial activity against Streptococcus pneumoniae serotype 23A assessed as percent susceptible isolates by broth microdilution method in presence of clavulanate; type: functional
Streptococcus pneumoniae [10] = experiment: Antibacterial activity against Streptococcus pneumoniae serotype 15A assessed as percent susceptible isolates by broth microdilution method in presence of clavulanate; type: functional
Streptococcus pneumoniae [11] = experiment: Antibacterial activity against Streptococcus pneumoniae serotype 33 assessed as percent susceptible isolates by broth microdilution method in presence of clavulanate; type: functional
Streptococcus pneumoniae [12] = experiment: Antibacterial activity against Streptococcus pneumoniae serotype 22 assessed as percent susceptible isolates by broth microdilution method in presence of clavulanate; type: functional
Streptococcus pneumoniae [13] = experiment: Antibacterial activity against Streptococcus pneumoniae serotype 19A assessed as percent resistant isolates by broth microdilution method in presence of clavulanate; type: functional
Streptococcus pneumoniae [14] = experiment: Antibacterial activity against Streptococcus pneumoniae serotype 6A/C assessed as percent resistant isolates by broth microdilution method in presence of clavulanate; type: functional
Streptococcus pneumoniae [15] = experiment: Antibacterial activity against Streptococcus pneumoniae serotype 3 assessed as percent resistant isolates by broth microdilution method in presence of clavulanate; type: functional
Streptococcus pneumoniae [16] = experiment: Antibacterial activity against Streptococcus pneumoniae serotype 19F assessed as percent resistant isolates by broth microdilution method in presence of clavulanate; type: functional
Streptococcus pneumoniae [17] = experiment: Antibacterial activity against Streptococcus pneumoniae serotype 35B assessed as percent resistant isolates by broth microdilution method in presence of clavulanate; type: functional
Streptococcus pneumoniae [18] = experiment: Antibacterial activity against Streptococcus pneumoniae serotype 23A assessed as percent resistant isolates by broth microdilution method in presence of clavulanate; type: functional
Streptococcus pneumoniae [19] = experiment: Antibacterial activity against Streptococcus pneumoniae serotype 15A assessed as percent resistant isolates by broth microdilution method in presence of clavulanate; type: functional
Streptococcus pneumoniae [20] = experiment: Antibacterial activity against Streptococcus pneumoniae serotype 33 assessed as percent resistant isolates by broth microdilution method in presence of clavulanate; type: functional
Streptococcus pneumoniae [21] = experiment: Antibacterial activity against Streptococcus pneumoniae serotype 22 assessed as percent resistant isolates by broth microdilution method in presence of clavulanate; type: functional
Streptococcus pneumoniae [22] = experiment: Antibacterial activity against Streptococcus pneumoniae serotype 19A by broth microdilution method in presence of clavulanate; type: functional
Streptococcus pneumoniae [23] = experiment: Antibacterial activity against Streptococcus pneumoniae serotype 6A/C by broth microdilution method in presence of clavulanate; type: functional
Streptococcus pneumoniae [24] = experiment: Antibacterial activity against Streptococcus pneumoniae serotype 3 by broth microdilution method in presence of clavulanate; type: functional
Streptococcus pneumoniae [25] = experiment: Antibacterial activity against Streptococcus pneumoniae serotype 19F by broth microdilution method in presence of clavulanate; type: functional
Streptococcus pneumoniae [26] = experiment: Antibacterial activity against Streptococcus pneumoniae serotype 35B by broth microdilution method in presence of clavulanate; type: functional
Streptococcus pneumoniae [27] = experiment: Antibacterial activity against Streptococcus pneumoniae serotype 23A by broth microdilution method in presence of clavulanate; type: functional
[28] = T>MIC in mouse neutropenic thigh infection model infected with multidrug-resistant Streptococcus pneumoniae; type: functional, Thigh muscle
Streptococcus pneumoniae [29] = experiment: Antibacterial activity against Streptococcus pneumoniae serotype 19A by broth microdilution method; type: functional
Streptococcus pneumoniae [30] = experiment: Antibacterial activity against Streptococcus pneumoniae serotype 6A/C by broth microdilution method; type: functional
Streptococcus pneumoniae [31] = experiment: Antibacterial activity against Streptococcus pneumoniae serotype 3 by broth microdilution method; type: functional
Streptococcus pneumoniae [32] = experiment: Antibacterial activity against Streptococcus pneumoniae serotype 19F by broth microdilution method; type: functional
Streptococcus pneumoniae [33] = experiment: Antibacterial activity against Streptococcus pneumoniae serotype 35B by broth microdilution method; type: functional
Streptococcus pneumoniae [34] = experiment: Antibacterial activity against Streptococcus pneumoniae serotype 23A by broth microdilution method; type: functional
Streptococcus pneumoniae [35] = experiment: Antibacterial activity against Streptococcus pneumoniae serotype 15A by broth microdilution method; type: functional
Streptococcus pneumoniae [36] = experiment: Antibacterial activity against Streptococcus pneumoniae serotype 33 by broth microdilution method; type: functional
Streptococcus pneumoniae [37] = experiment: Antibacterial activity against Streptococcus pneumoniae serotype 22 by broth microdilution method; type: functional
Streptococcus pneumoniae [38] = experiment: Antibacterial activity against multidrug-resistant Streptococcus pneumoniae infected in mouse neutropenic thigh infection model; type: functional; details: Thigh muscle
Streptococcus pneumoniae [39] = experiment: Antibacterial activity against non-multidrug-resistant Streptococcus pneumoniae; type: functional
[40] = T>MIC in mouse prophylaxis model infected with Bacillus anthracis; type: functional
Streptococcus pneumoniae [41] = experiment: Antibacterial activity against multidrug-resistant Streptococcus pneumoniae; type: functional

In the case of CC1(C)S[C@@H]2[C@H](NC(=O)[C@H](N)c3ccc(O)cc3)C(=O)N2[C@H]1C(=O)O [AMOXICILLIN], the MIC90 (Streptococcus pneumoniae [1]) is reported as 0.25 µg/mL, the MIC90 (Streptococcus pneumoniae [2]) is reported as ≤ 0.12 µg/mL and the MIC90 (Streptococcus pneumoniae [3]) is reported as ≤ 0.12 µg/mL. The % susceptible isolates (Streptococcus pneumoniae [4]) was 62%, the % susceptible isolates (Streptococcus pneumoniae [5]) was 97% and the % susceptible isolates (Streptococcus pneumoniae [6]) was 100%. The % susceptible isolates (Streptococcus pneumoniae [7]) was 47%, the % susceptible isolates (Streptococcus pneumoniae [8]) was 100% and the % susceptible isolates (Streptococcus pneumoniae [9]) was 100%. For the same compound, the % susceptible isolates (Streptococcus pneumoniae [10]) was 100%, the % susceptible isolates (Streptococcus pneumoniae [11]) was 100% and the % susceptible isolates (Streptococcus pneumoniae [12]) was 100%. The % resistant isolates (Streptococcus pneumoniae [13]) was 35%, the % resistant isolates (Streptococcus pneumoniae [14]) was 3% and the % resistant isolates (Streptococcus pneumoniae [15]) was 0%. For the same compound, the % resistant isolates (Streptococcus pneumoniae [16]) was 48%, the % resistant isolates (Streptococcus pneumoniae [17]) was 0% and the % resistant isolates (Streptococcus pneumoniae [18]) was 0%. For the same compound, the % resistant isolates (Streptococcus pneumoniae [19]) was 0%, the % resistant isolates (Streptococcus pneumoniae [20]) was 0% and the % resistant isolates (Streptococcus pneumoniae [21]) was 0%. The MIC90 (Streptococcus pneumoniae [22]) was 8 µg/mL, the MIC90 (Streptococcus pneumoniae [23]) was 1 µg/mL and the MIC90 (Streptococcus pneumoniae [24]) was ≤ 0.12 µg/mL. For the same compound, the MIC90 (Streptococcus pneumoniae [25]) was 16 µg/mL, the MIC90 (Streptococcus pneumoniae [26]) was 2 µg/mL and the MIC90 (Streptococcus pneumoniae [27]) was 0.25 µg/mL.
In the case of C[C@@H](O)[C@H]1C(=O)N2C(C(=O)O)=C([C@H]3CCCO3)S[C@H]12 [FAROPENEM], the “fT>MIC” value [28] is reported as 13.9%, the MIC90 (Streptococcus pneumoniae [29]) is reported as 1 µg/mL (≈ 3.5 µM) and the MIC90 (Streptococcus pneumoniae [30]) is reported as 0.25 µg/mL (≈ 0.876 µM). For the same compound, the MIC90 (Streptococcus pneumoniae [31]) was 0.015 µg/mL (≈ 0.0526 µM), the MIC90 (Streptococcus pneumoniae [32]) was 1 µg/mL (≈ 3.5 µM) and the MIC90 (Streptococcus pneumoniae [33]) was 0.5 µg/mL (≈ 1.75 µM). The MIC90 (Streptococcus pneumoniae [34]) was 0.06 µg/mL (≈ 0.21 µM), the MIC90 (Streptococcus pneumoniae [35]) was 0.12 µg/mL (≈ 0.421 µM) and the MIC90 (Streptococcus pneumoniae [36]) was 0.015 µg/mL (≈ 0.0526 µM). The MIC90 (Streptococcus pneumoniae [37]) was 0.015 µg/mL (≈ 0.0526 µM), the MIC90 (Streptococcus pneumoniae [38]) was > 2 µg/mL and the MIC90 (Streptococcus pneumoniae [39]) was 0.25 µg/mL (≈ 0.876 µM). For the same compound, the “fT>MIC” value [40] was 16.4% and the MIC90 (Streptococcus pneumoniae [41]) was 2 µg/mL (≈ 7.01 µM).
